Measurements as given in patent publication US20240400576A1, “NITROGEN-CONTAINING DERIVATIVES OF SALINOMYCIN, SYNTHESIS AND USES THEREOF” (Centre National de la Recherche Scientifique, priority 2021, published 2024).
Read-outs that look alike come from different tables or passages of the source.

How the values were obtained:
[1] = system: HMLER CD24^low/CD44^high cells; assay: Cell viability assay (CellTiter-Blue, 72 h) in HMLER breast cancer stem cell model; type: cell-based, human; details: for Selectivity: ratio of the IC50 ID2 to the IC50 HMLER; for IC50: Homo sapiens
Protocol: (§1) The compounds have been evaluated against a model of breast cancer stem cells (HMLER) and matching non-stem cells (namely ID2 of HIMLER CD24^high/CD4^high/low), and in MCF10A cells (normal breast cell line).
(§2) Each IC50 value was determined in biological triplicate (three independent biological experiments), and each triplicate was determined in at least technical duplicate.
HMLER cells naturally repressing E-cadherin, obtained from human mammary epithelial cells infected with a retrovirus carrying hTERT, SV40, and the oncogenic allele H-rasV12, were cultured in DMEM/F12 (Gibco, 31331-028) supplemented with 10% FBS, 10 μg/mL insulin (Sigma-Aldrich, 10516), 0.5 ug/mL hydrocortisone (Sigma-Aldrich, H0888), and 0.5 ug/mL puromycin (Life Technologies, A11138-02); cells were a generous gift from Alain Puisieux (INSERM). All cells were incubated at 37° C. with 5% CO2. HMLER CD44low/high cells stained with CD24-APC and CD44-PE antibodies were sorted by FACS using an Aria Ilu (BD Biosciences) to obtain isolated CD24^low/CD44^high and CD24^high/CD44^low cell populations. HMLER CD24^low/CD44^high cells were supplemented with 10 ng/ml human epidermal growth factor (EGF, Miltenyi Biotec, 130-093-750, 100 ng/ml), while HMLER CD24^high/CD44^low cells were grown without EGF. MCF10A cells (ATCC, CRL-10317) were cultured in DMEM/F12 supplemented with 10% horse serum (Invitrogen, 16050-122), 10 μg/mL insulin, 10 ng/ml EGF, 0.5 μg/mL hydrocortisone, 100 ng/ml cholera toxin (Sigma-Aldrich, C8052), and 1× PenStrep (Invitrogen, 15070-063).
The cell viability assay was carried out by plating 1000 cells per well in 96-well plates. The cells were treated for 72 h in a range between 12 nM and 50 µM or 0.3 nM and 4 μM using serial dilutions following the manufacturer's protocol. Very briefly, the CellTiter-Blue reagent (G8081, Promega) was added to the wells after 72 h of treatment, and cells were incubated for 3 h before fluorescence intensities (λex=560/20 nm; λem=590/10 nm) were recorded using a PerkinElmer Wallac 1420 Victor2 microplate reader. The IC50 cell viability curves were plotted using the Prism 8 software for the synthesized compounds against HMLER CD24^low/CD44^high and the isogenic cell line HMLER CD24^high/CD44^low.
All derivatives were assessed for their antiproliferative activity and selectivity toward a well-established model of mesenchymal CSCs (HMLER CD24^low/CD44^high) together with their epithelial counterparts (HMLER CD24^high/CD44^low) lacking CSC properties. […] Specifically, compounds 6, 8, and 9 were identified to be particularly interesting in this context, with IC50 values of 30, 3, and 9 nM, respectively, together with their outstanding selectivities (Sls between 20.0 and 90.0).

[2] = system: ID2 (HMLER CD24^high/CD44^low) cells; assay: Cell viability assay (CellTiter-Blue, 72 h) in ID2 matching non-stem cells; type: cell-based; details: Homo sapiens, read-out: ID2 cancer cells (IC50, μM)
Protocol: as §1
Each IC50 value was determined in biological triplicate (three independent biological experiments), and each triplicate was determined in at least technical duplicate. […]
(§3) The cell viability assay was carried out by plating 1000 cells per well in 96-well plates. […] Very briefly, the CellTiter-Blue reagent (G8081, Promega) was added to the wells after 72 h of treatment, and cells were incubated for 3 h before fluorescence intensities (λex=560/20 nm; λem=590/10 nm) were recorded using a PerkinElmer Wallac 1420 Victor2 microplate reader. […]
All derivatives were assessed for their antiproliferative activity and selectivity toward a well-established model of mesenchymal CSCs (HMLER CD24^low/CD44^high) together with their epithelial counterparts (HMLER CD24^high/CD44^low) lacking CSC properties. […]

[3] = system: MCF10A cells; assay: Cell viability assay (CellTiter-Blue, 72 h) in MCF10A normal breast cell line; type: cell-based; details: Homo sapiens, MCF-10A, read-out: MCF10A (IC50, μM)
Protocol: as §1, §2
HMLER cells naturally repressing E-cadherin, obtained from human mammary epithelial cells infected with a retrovirus carrying hTERT, SV40, and the oncogenic allele H-rasV12, were cultured in DMEM/F12 (Gibco, 31331-028) supplemented with 10% FBS, 10 μg/mL insulin (Sigma-Aldrich, 10516), 0.5 ug/mL hydrocortisone (Sigma-Aldrich, H0888), and 0.5 ug/mL puromycin (Life Technologies, A11138-02); cells were a generous gift from Alain Puisieux (INSERM). All cells were incubated at 37° C. with 5% CO2. […]
as §3

[4] = cell viability, 72 h treatment, CellTiter-Blue, biological triplicate, read-out: HMLER cancer cells (IC50)
[5] = 72 h, read-out: HMLER cancer cells (IC50, μM)

Structure (SMILES) | Selectivity [1] | other results
CCCCN(CCCC)[C@H]1C=C[C@]2(O[C@H]([C@@H](CC)C(=O)[C@@H](C)[C@@H](O)[C@H](C)[C@@H]3O[C@@H]([C@@H](CC)C(=O)[O-])CC[C@@H]3C)[C@@H](C)C[C@H]2C)O[C@@]12CC[C@@](C)([C@H]1CC[C@](O)(CC)[C@H](C)O1)O2.[Na+] [Compound 10] | 7.6 | –
CCCN[C@H]1C=C[C@]2(O[C@H]([C@@H](CC)C(=O)[C@@H](C)[C@@H](O)[C@H](C)[C@@H]3O[C@@H]([C@@H](CC)C(=O)[O-])CC[C@@H]3C)[C@@H](C)C[C@H]2C)O[C@@]12CC[C@@](C)([C@H]1CC[C@](O)(CC)[C@H](C)O1)O2.[Na+] [Compound 2] | 10.1 | –
CCCCCN(CCCCC)[C@H]1C=C[C@]2(O[C@H]([C@@H](CC)C(=O)[C@@H](C)[C@@H](O)[C@H](C)[C@@H]3O[C@@H]([C@@H](CC)C(=O)[O-])CC[C@@H]3C)[C@@H](C)C[C@H]2C)O[C@@]12CC[C@@](C)([C@H]1CC[C@](O)(CC)[C@H](C)O1)O2.[Na+] [Compound 11] | 7.7 | –
CCN[C@H]1C=C[C@]2(O[C@H]([C@@H](CC)C(=O)[C@@H](C)[C@@H](O)[C@H](C)[C@@H]3O[C@@H]([C@@H](CC)C(=O)[O-])CC[C@@H]3C)[C@@H](C)C[C@H]2C)O[C@@]12CC[C@@](C)([C@H]1CC[C@](O)(CC)[C@H](C)O1)O2.[Na+] [Compound 1] | 6.1 | –
CC[C@@H](C(=O)[C@@H](C)[C@@H](O)[C@H](C)[C@@H]1O[C@@H]([C@@H](CC)C(=O)[O-])CC[C@@H]1C)[C@H]1O[C@]2(C=C[C@H](N(CC)CC)[C@]3(CC[C@@](C)([C@H]4CC[C@](O)(CC)[C@H](C)O4)O3)O2)[C@H](C)C[C@@H]1C.[Na+] [Compound 8] | 90.0 | IC50 [1, 4]: 0.003 ± 0.0005 µM
CCCCCCN(CCCCCC)[C@H]1C=C[C@]2(O[C@H]([C@@H](CC)C(=O)[C@@H](C)[C@@H](O)[C@H](C)[C@@H]3O[C@@H]([C@@H](CC)C(=O)[O-])CC[C@@H]3C)[C@@H](C)C[C@H]2C)O[C@@]12CC[C@@](C)([C@H]1CC[C@](O)(CC)[C@H](C)O1)O2.[Na+] [Compound 12] | 13.3 | –
CC[C@@H](C(=O)[C@@H](C)[C@@H](O)[C@H](C)[C@@H]1O[C@@H]([C@@H](CC)C(=O)[O-])CC[C@@H]1C)[C@H]1O[C@]2(C=C[C@H](NCC(C)C)[C@]3(CC[C@@](C)([C@H]4CC[C@](O)(CC)[C@H](C)O4)O3)O2)[C@H](C)C[C@@H]1C.[Na+] [Compound 4] | 11.0 | –
C#CCN(CC#C)[C@H]1C=C[C@]2(O[C@H]([C@@H](CC)C(=O)[C@@H](C)[C@@H](O)[C@H](C)[C@@H]3O[C@@H]([C@@H](CC)C(=O)O)CC[C@@H]3C)[C@@H](C)C[C@H]2C)O[C@@]12CC[C@@](C)([C@H]1CC[C@](O)(CC)[C@H](C)O1)O2 [Compound 19, C20-epi-dipropargyloaminosalinomycin] | 3.5 | IC50 [1, 5]: 2.4 µM; IC50 [2]: 8.43 µM
CCCCCCN[C@H]1C=C[C@]2(O[C@H]([C@@H](CC)C(=O)[C@@H](C)[C@@H](O)[C@H](C)[C@@H]3O[C@@H]([C@@H](CC)C(=O)[O-])CC[C@@H]3C)[C@@H](C)C[C@H]2C)O[C@@]12CC[C@@](C)([C@H]1CC[C@](O)(CC)[C@H](C)O1)O2.[Na+] [Compound 6] | 24.7 | IC50 [1, 4]: 0.03 ± 0.01 µM
CCCCCN[C@H]1C=C[C@]2(O[C@H]([C@@H](CC)C(=O)[C@@H](C)[C@@H](O)[C@H](C)[C@@H]3O[C@@H]([C@@H](CC)C(=O)[O-])CC[C@@H]3C)[C@@H](C)C[C@H]2C)O[C@@]12CC[C@@](C)([C@H]1CC[C@](O)(CC)[C@H](C)O1)O2.[Na+] [Compound 5] | 10.8 | –
CC[C@@H](C(=O)[C@@H](C)[C@@H](O)[C@H](C)[C@@H]1O[C@@H]([C@@H](CC)C(=O)O)CC[C@@H]1C)[C@H]1O[C@]2(C=C[C@@H](O)[C@]3(CC[C@@](C)([C@H]4CC[C@](O)(CC)[C@H](C)O4)O3)O2)[C@H](C)C[C@@H]1C [Salinomycin] | 3.1 | IC50 [1, 5]: 1.39 ± 0.1 µM; IC50 [2]: 4.36 ± 0.5 µM; IC50 [3]: 1.13 ± 0.14 µM
CCCCCCCCCCCCN(CCCCCCCCCCCC)[C@H]1C=C[C@]2(O[C@H]([C@@H](CC)C(=O)[C@@H](C)[C@@H](O)[C@H](C)[C@@H]3O[C@@H]([C@@H](CC)C(=O)[O-])CC[C@@H]3C)[C@@H](C)C[C@H]2C)O[C@@]12CC[C@@](C)([C@H]1CC[C@](O)(CC)[C@H](C)O1)O2.[Na+] [Compound 13] | 5.2 | –
CC[C@@H](C(=O)[C@@H](C)[C@@H](O)[C@H](C)[C@@H]1O[C@@H]([C@@H](CC)C(=O)[O-])CC[C@@H]1C)[C@H]1O[C@]2(C=C[C@H](NCc3ccccc3)[C@]3(CC[C@@](C)([C@H]4CC[C@](O)(CC)[C@H](C)O4)O3)O2)[C@H](C)C[C@@H]1C.[Na+] [Compound 14] | 6.2 | –
CC[C@@H](C(=O)[C@@H](C)[C@@H](O)[C@H](C)[C@@H]1O[C@@H]([C@@H](CC)C(=O)[O-])CC[C@@H]1C)[C@H]1O[C@]2(C=C[C@H](NCc3ccc(Cl)cc3)[C@]3(CC[C@@](C)([C@H]4CC[C@](O)(CC)[C@H](C)O4)O3)O2)[C@H](C)C[C@@H]1C.[Na+] [Compound 18] | 11.0 | –
CC[C@@H](C(=O)[C@@H](C)[C@@H](O)[C@H](C)[C@@H]1O[C@@H]([C@@H](CC)C(=O)[O-])CC[C@@H]1C)[C@H]1O[C@]2(C=C[C@H](NCc3ccc(C)cc3)[C@]3(CC[C@@](C)([C@H]4CC[C@](O)(CC)[C@H](C)O4)O3)O2)[C@H](C)C[C@@H]1C.[Na+] [Compound 16] | 12.7 | –
CC[C@@H](C(=O)[C@@H](C)[C@@H](O)[C@H](C)[C@@H]1O[C@@H]([C@@H](CC)C(=O)[O-])CC[C@@H]1C)[C@H]1O[C@]2(C=C[C@H](NCc3ccc(O)cc3)[C@]3(CC[C@@](C)([C@H]4CC[C@](O)(CC)[C@H](C)O4)O3)O2)[C@H](C)C[C@@H]1C.[Na+] [Compound 15] | 12.4 | –
CCCN(CCC)[C@H]1C=C[C@]2(O[C@H]([C@@H](CC)C(=O)[C@@H](C)[C@@H](O)[C@H](C)[C@@H]3O[C@@H]([C@@H](CC)C(=O)[O-])CC[C@@H]3C)[C@@H](C)C[C@H]2C)O[C@@]12CC[C@@](C)([C@H]1CC[C@](O)(CC)[C@H](C)O1)O2.[Na+] [Compound 9] | 20.0 | IC50 [1, 4]: 0.009 ± 0.0002 µM
CCCCCCCCCCCCN[C@H]1C=C[C@]2(O[C@H]([C@@H](CC)C(=O)[C@@H](C)[C@@H](O)[C@H](C)[C@@H]3O[C@@H]([C@@H](CC)C(=O)[O-])CC[C@@H]3C)[C@@H](C)C[C@H]2C)O[C@@]12CC[C@@](C)([C@H]1CC[C@](O)(CC)[C@H](C)O1)O2.[Na+] [Compound 7] | 4.1 | –
CC[C@@H](C(=O)[C@@H](C)[C@@H](O)[C@H](C)[C@@H]1O[C@@H]([C@@H](CC)C(=O)[O-])CC[C@@H]1C)[C@H]1O[C@]2(C=C[C@H](NCc3ccc(F)cc3)[C@]3(CC[C@@](C)([C@H]4CC[C@](O)(CC)[C@H](C)O4)O3)O2)[C@H](C)C[C@@H]1C.[Na+] [Compound 17] | 10.2 | –
CCCCN[C@H]1C=C[C@]2(O[C@H]([C@@H](CC)C(=O)[C@@H](C)[C@@H](O)[C@H](C)[C@@H]3O[C@@H]([C@@H](CC)C(=O)[O-])CC[C@@H]3C)[C@@H](C)C[C@H]2C)O[C@@]12CC[C@@](C)([C@H]1CC[C@](O)(CC)[C@H](C)O1)O2.[Na+] [Compound 3] | 15.2 | –
